Measured values taken from the NIST ThermoML archive (doi:10.1016/j.jct.2016.07.005).
± gives the expanded uncertainty stated by the source.

Columns and labels:
[1] = 100 kPa, Liquid; for viscosity: Concentric cylinders viscometry; for mass density: Vibrating tube method
[2] = refractive index (Na D-line) (dimensionless); details: 100 kPa, Liquid, Standard Abbe refractometry
[3] = xn = mol fraction of the nth substance listed; details: 100 kPa, Liquid, x2 = 0; for viscosity: Concentric cylinders viscometry; for mass density: Vibrating tube method
[4] = refractive index (Na D-line) (dimensionless); xn = mol fraction of the nth substance listed; details: 100 kPa, Liquid, Standard Abbe refractometry, x2 = 0

## CCC(C)O (configuration not stated) [butan-2-ol]
[1]; 293.15 K
  viscosity: 3.76 ± 0.077 mPa·s
  mass density: 807.19 ± 1 kg/m3
[1]; 298.15 K
  viscosity: 3.093 ± 0.064 mPa·s
  mass density: 803.049 ± 1 kg/m3
[1]; 303.15 K
  viscosity: 2.566 ± 0.053 mPa·s
  mass density: 798.829 ± 1 kg/m3
[1]; 308.15 K
  viscosity: 2.149 ± 0.044 mPa·s
  mass density: 794.525 ± 1 kg/m3
[1]; 313.15 K
  viscosity: 1.816 ± 0.038 mPa·s
  mass density: 790.127 ± 1 kg/m3
[1]; 318.15 K
  viscosity: 1.548 ± 0.032 mPa·s
  mass density: 785.636 ± 1 kg/m3
[1]; 323.15 K
  viscosity: 1.332 ± 0.028 mPa·s
  mass density: 781.043 ± 1 kg/m3
[2]; 293.15 K
  refractive index: 1.39715 ± 0.00036
[2]; 298.15 K
  refractive index: 1.39497 ± 0.00036
[2]; 303.15 K
  refractive index: 1.39274 ± 0.00036
[2]; 308.15 K
  refractive index: 1.39045 ± 0.00036
[2]; 313.15 K
  refractive index: 1.38803 ± 0.00036
[2]; 318.15 K
  refractive index: 1.38571 ± 0.00036
[2]; 323.15 K
  refractive index: 1.38322 ± 0.00036

## CC(O)CO (configuration not stated) [1,2-propanediol] + CN1CCC[C@H]1c1cccnc1
[3]; 293.15 K
  viscosity: 59.56 ± 1.2 mPa·s
  mass density: 1036.3 ± 1 kg/m3
[3]; 298.15 K
  viscosity: 44.14 ± 0.9 mPa·s
  mass density: 1032.62 ± 1 kg/m3
[3]; 303.15 K
  viscosity: 33.25 ± 0.68 mPa·s
  mass density: 1028.91 ± 1 kg/m3
[3]; 308.15 K
  viscosity: 25.5 ± 0.52 mPa·s
  mass density: 1025.16 ± 1 kg/m3
[3]; 313.15 K
  viscosity: 19.78 ± 0.4 mPa·s
  mass density: 1021.39 ± 1 kg/m3
[3]; 318.15 K
  viscosity: 15.76 ± 0.32 mPa·s
  mass density: 1017.57 ± 1 kg/m3
[3]; 323.15 K
  viscosity: 12.75 ± 0.26 mPa·s
  mass density: 1013.72 ± 1 kg/m3
[4]; 293.15 K
  refractive index: 1.43279 ± 0.00036
[4]; 298.15 K
  refractive index: 1.43111 ± 0.00036
[4]; 303.15 K
  refractive index: 1.42941 ± 0.00036
[4]; 308.15 K
  refractive index: 1.42773 ± 0.00036
[4]; 313.15 K
  refractive index: 1.42601 ± 0.00036
[4]; 318.15 K
  refractive index: 1.42429 ± 0.00036
[4]; 323.15 K
  refractive index: 1.42257 ± 0.00036
